# US20060263809A1, “Method for sensitive measure of low level apoptosis in cells” (The Rgents of The University of California, priority 2005, published 2006)
# Entries after “also recorded” stand apart in the source; their conditions may differ. *1 amine or outer side, *2 acyl side, *3 side chain or, on linkers, in order; H or OH if unused. Where a SMILES comes first, the peptide text is derived from it. Bridges are numbered along the chain shown (N, C = ends). Roman numbers before positions name the chains, in order. [ ]: non-standard residue; d: D form. The star is where a group is joined. Actinocin(9to1) = Cc1c2oc3c(C)ccc(C(=O)[*:1])c3nc-2c(C(=O)[*:2])c(N)c1=O; NMeV = CN[C@H](C(=O)O)C(C)C; Cbz = O=C(OCc1ccccc1)*; Sar = CNCC(=O)O; CH2F = FC*
# Experiments:
# [1] = cited from earlier work
# HMEC = assay: Growth curves in media with QVD; type: cell-based, human; settings: 0.1% DMSO + 40 μM QVD
# Procedure: (§1) HCA-2 fibroblasts and HMEC were grown in normal growth media (DMEM, MEGM) or normal growth media supplemented with 0.1% DMSO (DMSO) or 0.1% DMSO+40 μM QVD (QVD). HCA-2 growth curves were averaged triplicates (HCA-2) or duplicates (HMEC) and error bars (HCA-2) are SD.
# MEFs [2] = assay: Sub-G1 peak determination (flow cytometry); type: cell-based, mouse
# Procedure: Cell Death Assays: Sub-G1 peak determination. 1×10^5 cells were treated with Act-D (40 nM in DMSO), DMSO (0.2%), QVD (40 μM), or QVD plus Act-D for 1, 2, or 3 days. QVD (and Act-D+QVD) was replaced each day. At the end of the experiment, media were collected and washed once with PBS. The PBS was also collected and then the cells were trypisized. Trypsinization was stopped by addition of the previously collected and pooled media and PBS. Cells were then collected by centrifugation at 200 g for 10 minutes, resuspended in 70% ethanol and stored at −20° C. overnight. The fixed cells were resuspended in 300 μl of PBS containing 10 μg/ml PI and 0.5 μg/ml RNase A and incubated at room temperature for 1 hour. Cells were quantified by flow cytometery using a FACscan (Becton Dickinson) in FL-3 and analyzed using Cellquest software (BD) (Cotter and Martin, 1996).
# HCA-2 fibroblasts = assay: Growth curves in media with QVD; type: cell-based; settings: 0.1% DMSO + 40 μM QVD
# Procedure: as §1
# MEFs [3] = assay: Mitochondrial membrane potential (TMRE, flow cytometry); type: cell-based, mouse
# Procedure: Mitochondrial Membrane Potential. 1×10^5 cells were treated with Act-D and QVD for 1, 2, or 3 days. QVD (and Act-D+QVD) was replaced each day. At the end of the experiment, media were collected and the cells were washed with PBS. The PBS was collected and combined with the media. Cells were trypsinized and resuspended in medium and PBS, as described above. The cells were spun for 5 min at 200 g and resuspended in fresh media containing TMRE (50 nM) and allowed to incubate at 37° C. for 30 minutes. Fluorescence was quantified in FL-2 using a FACscan and analyzed with Cellquest software (Waterhouse et al., 2001).
# MEFs [4] = assay: Cell detachment scoring of Act-D-treated cultures with caspase inhibitors; type: cell-based, mouse; settings: Act-D 40 nM, 3 days
# Procedure: MEFs were given Act-D (40 nM in DMSO) or DMSO and either no inhibitor, zVAD (100 μM) or QVD (40 μM). After 3 days, the cells were photographed at 10× magnification.
# (§2) Subconfluent cultures were treated with the caspase inhibitors zVAD or QVD together with actinomycin D (Act-D; 40 nM), which is known to induce cell death […]. Initially, the cultures were simply scored for cell detachment, a late event in the apoptotic response of adherent cells.
# HMECs = assay: as above; type: cell-based, human; settings: for detachment of cells in the presence of Act-D and caspase inhibitor: Act-D treated
# Procedure: as §2
# WI-38 fibroblasts = assay: as above; type: cell-based, human; settings: for attachment of Act-D treated cells with caspase inhibitor: WI-38 cells
# Procedure: as §2
# MEFs [5] = assay: Caspase-independent cytochrome c release (CICR) assay, diffuse cytochrome c immunostaining; type: cell-based, mouse; settings: for Diffuse cyt c (%): Act-D 40 nM, QVD 40 μM
# Procedure: Caspase-independent cytochrome c release (CICR) assay. 3×10^4 cells were plated in each well of a Lab-Tek 4 well chamber slide (Nalge Nunc International, Naperville, Ill.) and treated with Act-D (40 nM), DMSO (0.2%), QVD (40 μM), or QVD plus Act-D for 1, 2, or 3 days. QVD (and Act-D+QVD) was replaced each day. At the end of the experiment, cells were washed twice with PBS and fixed with 4% formaldahyde in PBS for 5 minutes at room temperature. The cells were then washed twice with PBS and then incubated in blocking buffer (3% BSA and 0.1% Triton-X in PBS) for 30 min at room temperature. Cells were incubated for 1 hour at room temperature with anti-cytochrome c (Pharmingen, San Jose, Calif.) diluted 1:800 and 15 μg/ml Hoechst 33342 in blocking buffer. Cells were washed 5 times with PBS, and incubated with anti-mouse secondary antibody for 1 hour at room temperature. The cells were washed 5 times with PBS and then mounted in Prolong (Molecular Probes, Eugene, Oreg.).
# Cells were scored as apoptotic if cytochrome c appeared diffuse and met the following criteria: 1) presence of diffuse cytochrome c in both the cytoplasm and nucleus; 2) lack of reticulated or punctate staining in the cytoplasm. Typically images were acquired using a 20× objective, and 500-800 cells were scored. For the exact number of cells counted in FIGS. 3A, 4, and 5, see Table 1 below. Nuclei were counted using images of uniformly illuminated Hoechst staining imported into Image J (URL: <http://rsb.info.nih.gov/ij/>).
# MEFs [6] = assay: PI exclusion assay (flow cytometry); type: cell-based, mouse
# Procedure: PI exclusion assay. 1×10^5 cells were treated with Act-D (40 nM in DMSO), DMSO (0.2%), QVD (40 μM), or QVD plus Act-D for 1, 2, or 3 days. QVD (and Act-D+QVD) was replaced each day. At the end of the experiment, PI was added to a final concentration of 10 μg/ml. Following 10 min in the incubator, media were collected and the cells were washed with PBS. The PBS was also collected and combined with the media. The remaining cells were trypsinized and then combined with the mix of PBS and media. The cells were centrifuged at 200 g for 10 minutes and resuspended in 300 μl of PBS. The cells were then quantified and analyzed as above (Cotter and Martin, 1996).
# HeLa cells = assay: Cytochrome c immunocytochemistry of HeLa cells treated with ActD and ZVAD-fmk; type: cell-based; settings: 24 h after treatment
# Procedure: FIGS. 6A and 61B are photographs of the cells after the apoptosis assay. FIG. 6A. Immunocytochemistry. HeLa cells were treated with vehicle (DMSO Control), actinomycin D (ActD) to induce apoptosis, or ActD plus the caspase inhibitor ZVAD-fmk. 24 h later, cells were immunostained for cytochrome c (green) and counterstained with DAPI (blue) to identify nuclei. In control cells, cytochrome c is evident as punctate mitochondrial staining. […] FIG. 6B. Quantification. The % cells with diffuse cytochrome c staining (x axis) were scored 24 h after treatment with vehicle (Contr), ActD or ActD plus ZVAD (ZV). Cytochrome c staining in the presence of ZVAD allows apoptotic cells to accumulate over 24 h.
# [7] = MEFs treated with Act-D for one day
smiles,measurement,setting,value
"CC(C)[C@H](NC(=O)c1ccc2ccccc2n1)C(=O)N[C@@H](CC(=O)O)C(=O)COc1c(F)cccc1F [QVD, Quinoline-Val-Asp-Ch2-O-Ph]",dose with no toxicity / administered safely,"[1]; animal, data sheet of distributor MP Biomedicals",1 g/kg of body weight
same,dose reported as safely used,"[1]; in vivo, Yang et al. 2004",20 mg/kg of body weight
same,effect on cell growth,HMEC,does not inhibit growth
same,effect on Act-D-induced sub-G1 DNA peak,"MEFs [2]; MEFs, Act-D, 40 μM QVD",substantially or completely reduced
same,effect on cell growth,HCA-2 fibroblasts,does not inhibit growth
same,effect on Act-D-induced reduction in ΔΨm,"MEFs [3]; MEFs, Act-D, 40 μM QVD",substantially or completely reduced
same,prevention of Act-D-induced cell detachment,MEFs [4]; QVD 40 μM,preserves adhesion; also recorded: prevented most of the cell detachment
same,detachment of cells in the presence of Act-D and caspase inhibitor,HMECs,a small fraction detached
same,attachment of Act-D treated cells with caspase inhibitor,WI-38 fibroblasts,remained equally well attached
same,Diffuse cyt c (%),"MEFs [5]; MEFs, Day 1",2.0%
same,Diffuse cyt c (%),"MEFs [5]; MEFs, Day 2",2.3%
same,Diffuse cyt c (%),"MEFs [5]; MEFs, Day 3",3.2%
same,effect on Act-D-induced loss of propidium iodide exclusion,"MEFs [6]; MEFs, Act-D, 40 μM QVD",substantially or completely reduced
"Cc1c2oc3c(C)ccc(C(=O)N[C@@H]4C(=O)N[C@H](C(C)C)C(=O)N5CCC[C@H]5C(=O)N(C)CC(=O)N(C)[C@@H](C(C)C)C(=O)O[C@@H]4C)c3nc-2c(C(=O)N[C@@H]2C(=O)N[C@H](C(C)C)C(=O)N3CCC[C@H]3C(=O)N(C)CC(=O)N(C)[C@@H](C(C)C)C(=O)O[C@@H]2C)c(N)c1=O [Act-D, actinomycin D] (I: T[dV]P[Sar][NMeV] / II: T[dV]P[Sar][NMeV]; ester I:1-I:C, II:1-II:C; linker I:N-II:N via Actinocin(9to1))",apoptosis detected by subG1 peak determination,MEFs [2]; [7],little or no apoptosis
same,time after addition at which manifestations of apoptosis were apparent (sub-G1 DNA peak),"MEFs [2]; MEFs, Act-D",1 to 2 days
same,apoptosis detected by loss of ΔΨm,MEFs [3]; [7],little or no apoptosis
same,time after addition at which manifestations of apoptosis were apparent (reduction in ΔΨm),"MEFs [3]; MEFs, Act-D",1 to 2 days
same,apoptotic morphology and detachment,MEFs [4],adopt characteristic apoptotic morphology and detach from the culture dish
same,cells remaining on dish and cytochrome c staining,HeLa cells,fewer cells are present on the culture dish
same,apoptotic morphology and detachment,"HMECs; Act-D 40 nM, 3 days",adopt characteristic apoptotic morphology and detach from the culture dish
same,apoptotic morphology and detachment,"WI-38 fibroblasts; WI-38, Act-D 40 nM, 3 days",adopt characteristic apoptotic morphology and detach from the culture dish
same,cells apoptotic by CICR assay,"MEFs [5]; MEFs treated with Act-D for one day, CICR assay (QVD present)",13%
same,cells dead or dying by CICR assay,"MEFs [5]; MEFs treated with Act-D, after 3 days, CICR assay (QVD present)",96%
same,time at which Act-D begins killing cells by CICR assay,"MEFs [5]; MEFs, CICR assay",≤ 24 h
same,Diffuse cyt c (%),"MEFs [5]; MEFs, Day 1",0.8%
same,Diffuse cyt c (%),"MEFs [5]; MEFs, Day 2",13.4%
same,cells died by PI exclusion assay,"MEFs [6]; MEFs treated with Act-D, after 3 days",74%
same,time after addition at which manifestations of apoptosis were apparent (propidium iodide exclusion),"MEFs [6]; MEFs, Act-D",1 to 2 days
"COC(=O)C[C@H](NC(=O)[C@H](C)NC(=O)[C@@H](NC(=O)OCc1ccccc1)C(C)C)C(=O)CF [zVAD, benzyloxycarbonyl-Val-Ala-Asp-fluoromethylketone] (Cbz-Val-Ala-Asp(OMe)-CH2F)",prevention of Act-D-induced cell detachment,MEFs [4]; zVAD 100 μM,failed to prevent detachment
same,detachment of cells in the presence of Act-D and caspase inhibitor,HMECs,a larger fraction detached
same,attachment of Act-D treated cells with caspase inhibitor,WI-38 fibroblasts,remained equally well attached
